Results on four compounds are retold here after patent publication US10450549B2, “Aryloxyphenoxypropionate tolerance in turfrgass species and use of AAD1 as a selectable marker” (Dow AgroSciences, LLC, priority 2004, dated 2019).

The subject of one experiment is AAD1 (v3) cotton plant. Kind of experiment: 2,4-D resistance of AAD1 (v3) cotton plant. Type of experiment: in vivo. As to conditions: 560 g ae/ha. The protocol: (§1) Two AAD1 (v3) cotton lines have produced plants according to the above protocol that have been sent to the greenhouse. […] The plants were sprayed at 560 g ae/ha 2,4-DMA formulated in 200 mM Hepes buffer (pH 7.5). The plants were evaluated at 3, 7, and 14 days after treatment. Plants were assigned injury ratings with respect to stunting, chlorosis, and necrosis. Plants assigned an injury rating of 90% or above are considered dead. […] By 7 DAT epinasy continued on the wild-type and the new growth shoots began turning brown. It received a rating of 50% at this time. At 14 DAT the AAD1 (v3) plant was still uninjured, whereas the wild-type was severely stunted, and the new growth areas were brown and shriveled. Thus, the wild-type received a rating of 90% at 14 DAT.

The next experiment concerns wild-type cotton plants. The experiment can be described thus: 2,4-D injury of wild-type cotton plant. Format: in vivo. The following applies: 560 g ae/ha. Here is the method:
as §1

Experiment [1] has as its system T4 Arabidopsis homozygous for AAD1 (v3) (line AAD1.01.315.076). The experiment can be described thus: Foliar-applied auxinic herbicides on homozygous T4 AAD1 (v3) Arabidopsis, % injury 14 DAT. Format: in vivo, Arabidopsis thaliana. As to conditions: AAD1.01.315.076.T4 homozygous AAD1 plants. A digest of the protocol: (§2)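 Homozygous T4 AAD1 (v3) Arabidopsis (line AAD1.01.315.076) and a PAT/Cry1F transformed control were grown in pots and track-sprayed foliarly at 187 L/ha with herbicides formulated in 200 mM Hepes pH 7.5. Injury was rated 14 days after treatment, with 3-4 replicates averaged over two experiments.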

For experiment [2], the system named is AAD1 (v3) T1 tobacco (events 721(2)-013.010 and 721(3)-008.005). The experiment can be described thus: Segregating AAD1 T1 tobacco response to phenoxy auxin herbicides. Format: in vivo, Nicotiana tabacum. From the text: (§3) Two AAD1 (v3) tobacco lines (event 721(2)-013.010 and 721(3)-008.005) were chosen from the T0 generation. The T1 seed was stratified, and sown into selection trays much like that of Arabidopsis (Example 6.4), followed by selective removal of untransformed nulls in this segregating population with 280 g ai/ha glufosinate (PAT selection). Survivors were transferred to individual 3-inch pots in the greenhouse. […] Improved consistency of response is anticipated in T1 plants not having come directly from tissue culture. These plants were compared against wildtype KY 160 tobacco. All plants were sprayed with the use of a track sprayer set at 187 L/ha. […] All applications were formulated in 200 mM Hepes buffer (pH 7.5). Each treatment was replicated 4 times. Plants were evaluated at 3 and 14 days after treatment. Plants were assigned injury rating with respect to stunting, chlorosis, and necrosis. The T1 generation is segregating, so some variable response is expected due to difference in zygosity. (Table 28).

For a further experiment, the system named is wildtype KY 160 tobacco. The experiment can be described thus: Wildtype tobacco response to phenoxy auxin herbicides. Type of experiment: in vivo, Nicotiana tabacum. The following applies: KY160-Wildtype. Here is the method: Each treatment was replicated 1-3 times. Injury ratings were recorded 3 and 14 DAT. […] In several events, some initial auxinic herbicide-related epinasty occurred at doses of 800 g ae/ha or less. […] All events suffered some level temporary auxinic damage 3 DAT when treated with 3200 g ae/ha. Some leaf burning also occurred at this high rate due to the acidity of the spray solution. Future trials at high 2,4-D rates were buffered. […] Some events were inconsistent in response among replicates and were deemed “variable” (Table 27).
as §3

The next experiment concerns Hi II X 5XH751. Kind of experiment: Greenhouse injury of non-transformed Hi II X 5XH751 corn (2,4-D DMA, glyphosate, glufosinate and combinations). Format: in vivo. Here is the method:
(§4) F1 seeds were planted individually into 3-inch pots prepared with Metro-Mix® 360 growing medium (Sun Gro Horticulture). […] For the remainder of the study the plants were subirrigated with deionized water.
(§5) The plants were sprayed with rates of 2,4-D DMA, glyphosate, glufosinate, and various combinations of the three. All applications were formulated in 200 mM Hepes buffer (pH 7.5). In spray applications where glufosinate was present the treatment was formulated with the addition of 2% w/v ammonium sulfate.
(§6) At 3 and 14 days after treatment (DAT) plants were evaluated. Plants were assigned injury rating with respect to stunting, chlorosis, and necrosis. Plants assigned an injury rating of 90% or above are considered dead.

Experiment [3] relates to transformed-control line containing PAT and Cry1F. The experiment can be described thus: Foliar-applied auxinic herbicides on control (PAT/Cry1F, wildtype) Arabidopsis, % injury 14 DAT. Format: in vivo, Arabidopsis thaliana. The following applies: PatCry1f - Control. A digest of the protocol:
as §2

Experiment [4] deals with F1 corn containing AAD1 (v3), PAT, and glyphosate resistance genes. The experiment can be described thus: Greenhouse injury of F1 corn stacked with AAD1 (v3), PAT and glyphosate resistance (2,4-D DMA, glyphosate, glufosinate and combinations). Format: in vivo. As to conditions: RR/PAT/AAD1.
Description: Homozygous T2 AAD1 (v3)/PAT corn plants were crossed with glyphosate resistant corn plants producing F1 seed containing AAD1 (v3), PAT, and glyphosate resistance genes as described in the previous example.
as §4, §5, §6

The subject of experiment [5] is non-transformed (NT) ‘Shamrock’ Kentucky bluegrass. Kind of experiment: Haloxyfop-R-methyl on non-transformed Kentucky bluegrass controls. Type of experiment: in vivo. The following applies: seed grown plants. Here is the method: The selected T0 plants were sprayed with haloxyfop-R-methyl (Gallant Super®, DOW AGROSCIENCES, INC.) at rates ranging from 140 to 560 g ae/ha. […] This rate would also control susceptible monocot weed species. Measured amounts were placed individually in 25 mL glass vials and dissolved in a 12 mL volume of 1.0% (v/v) Agri-Dex® Crop Oil Concentrate (COC).
Spray solutions were applied to the plant material with an overhead Mandel™ track sprayer equipped with a 8002E nozzles calibrated to deliver 187 L/ha over an application area of 0.503 square meters (m^2) at a spray height of 18 inches (46 cm) above average plant canopy height. Control plants were sprayed in the same manner with the COC blank.
The treated plants and control plants were placed in a greenhouse and watered by sub-irrigation to prevent wash-off of the test compounds. At various times after application, the condition of the test plants as compared with that of the untreated plants was determined visually and scored on a scale of 0 to 100 percent, where 0 corresponds to no injury or growth inhibition, and 100 corresponds to complete kill. Regenerated, non-transformed (NT) ‘Shamrock’ Kentucky bluegrass plants and/or seed-derived clonally propagated plants served as haloxyfop sensitive controls.

Another experiment concerns the target T1, AAD1 (v1) (Sphingobium herbicidovorans, UniProt Q8KSC8).
T1 construct: made in house; host or cells: E. coli BL-21 Star (DE3), plasmid pDAB3203
Kind of experiment: Colorimetric phenol detection assay of AAD1 (v1) activity (purified enzyme or E. coli extract). Format: biochemical.

The next experiment concerns immature Hi-II embryos. The experiment can be described thus: Dose response using immature maize embryos (% embryogenic callus formation). Type of experiment: cell-based. As to conditions: up to 30 nM. Here is the method: Dose response studies were initiated using immature embryos treated with Agrobacterium strain LBA4404 lacking a plasmid as described previously. Once treated, embryos were allowed to co-cultivate for 5 days at 25° C. and were then transferred to selection media containing various levels of R-haloxyfop or R-cyhalofop. Embryos were also transferred to media containing 1 mg/L bialaphos and 100 nM imazethapyr as negative controls. Embryos were scored for % embryogenic callus formation after 2 weeks, and then again after 4 weeks.

The next experiment concerns the target AAD2 (v1) (Bradyrhizobium diazoefficiens, UniProt Q89UC4). Kind of experiment: Colorimetric phenol assay of AAD2 (v1) E. coli extract / partially purified enzyme. Type of experiment: biochemical, Bradyrhizobium japonicum. As to conditions: E. coli extract.
Experiment [6] has as its system pDAB3230-transformed Arabidopsis. Kind of experiment: Glyphosate tolerance of pDAB3230 (AAD1 (v3)+EPSPS) T1 Arabidopsis. Format: in vivo, Arabidopsis thaliana. As to conditions: 7 DAT; EPSPS stacked with AAD1 (v3).

What is called kcat is the number of substrate molecules converted per active site and unit of time at saturation. Usually Km stands for the substrate concentration at which the rate is half of its maximum.

As for `CNC.O=C(O)COc1ccc(Cl)cc1Cl` [2,4-DMA], the “injury, AAD1 (v3) cotton” value in the experiment with AAD1 (v3) cotton plant (3 DAT) was 0%; in the experiment on AAD1 (v3) cotton plant (14 DAT) it was “uninjured”. Further, the “injury rating, wild-type cotton” value in the experiment with wild-type cotton plants (3 DAT) is 15%; in the experiment with wild-type cotton plants (7 DAT), 50%; with wild-type cotton plants (14 DAT), 90%. Besides, the “Ave % Injury 14DAT” value in [1] (12.5 g ae/ha foliar), in experiment [1] (25 g ae/ha foliar), in [1] (50 g ae/ha foliar), in experiment [1] (100 g ae/ha foliar), in experiment [1] (200 g ae/ha foliar) and in [1] (400 g ae/ha foliar) was 0% each time. For the same compound, the “Ave % Injury 14DAT” value in experiment [1] (800 g ae/ha foliar) was determined as 0%; in experiment [1] (1600 g ae/ha foliar), 0%; in experiment [3] (12.5 g ae/ha foliar) it was 67%; in experiment [3] (25 g ae/ha foliar), 78%; in [3] (50 g ae/ha foliar), 93%; in [3] (100 g ae/ha foliar), 100%. The “Ave % Injury 14DAT” value in experiment [3] (200 g ae/ha foliar), in [3] (400 g ae/ha foliar), in experiment [3] (800 g ae/ha foliar) and in [3] (1600 g ae/ha foliar) was 100% in each case. The “Average % Injury of Replicates 14 DAT” value came to 5% in experiment [2] (560 g ae/ha, 721(2)013.010 (medium tolerance in T0 generation)); 0% in experiment [2] (560 g ae/ha, 721(3)008.005 (high tolerance in T0 generation)); 5% in experiment [2] (1120 g ae/ha, 721(2)013.010 (medium tolerance in T0 generation)); 2% in experiment [2] (1120 g ae/ha, 721(3)008.005 (high tolerance in T0 generation)); 5% in [2] (2240 g ae/ha, 721(2)013.010 (medium tolerance in T0 generation)); 0% in [2] (2240 g ae/ha, 721(3)008.005 (high tolerance in T0 generation)). Also, the “Average % Injury of Replicates 14 DAT” value in experiment [2] (4480 g ae/ha, 721(2)013.010 (medium tolerance in T0 generation)) was found to be 5%; in experiment [2] (4480 g ae/ha, 721(3)008.005 (high tolerance in T0 generation)), 5%; with wildtype KY 160 tobacco (560 g ae/ha), 75%; in the experiment on wildtype KY 160 tobacco (1120 g ae/ha) it was 80%; in the experiment with wildtype KY 160 tobacco (2240 g ae/ha) it was 90%; in the experiment with wildtype KY 160 tobacco (4480 g ae/ha), 95%. The “% Injury at 14 DAT Ave” value with Hi II X 5XH751 (560 g ae/ha (1X)) was 10%; in the experiment with Hi II X 5XH751 (1120 g ae/ha (2X)), 14%; in the experiment on Hi II X 5XH751 (2240 g ae/ha (4X)), 29%; in experiment [4] (560 g ae/ha (1X)) it was 0%; in experiment [4] (1120 g ae/ha (2X)) it was 0%; in experiment [4] (2240 g ae/ha (4X)), 0%.

Regarding `COC(=O)[C@@H](C)Oc1ccc(Oc2ncc(C(F)(F)F)cc2Cl)cc1` [haloxyfop-R-methyl], in experiment [5], the “GR90 (herbicide rate which produces 90% injury and/or growth inhibition)” value is listed as “approximately 70 g ae/ha”.

Consider `C[C@@H](Oc1ccc(Oc2ncc(C(F)(F)F)cc2Cl)cc1)C(=O)O` [R-haloxyfop], for which, on AAD1 (v1) (0.5 mM substrate, 4 μl extract, 15 min), the “activity of AAD1 (v1) E. coli extract on substrate” value is listed as “equivalent to that on (R,S)-haloxyfop”. Moreover, the kcat on AAD1 (v1) (purified AAD1 (v1)) came out at 0.187 s⁻¹. Moreover, the Km at AAD1 (v1) (purified AAD1 (v1), 25 mM MOPS pH 6.8, 25° C., read-out: Km ± SE) worked out at 120 ± 54 µM. Besides, the “Vmax ± SE” value on AAD1 (v1) (purified AAD1 (v1), Michaelis-Menten fit) came out at 0.34 ± 0.04 μmol min^−1 mg^−1 AAD1. Besides, the “reduction of embryogenic callus formation” value in the experiment on immature Hi-II embryos was “insufficient reduction of callus formation”. Moreover, the “AAD2 (v1) activity on substrate” value at AAD2 (v1) is listed as “unable to act”.

With `O=C(O)CNCP(=O)(O)O` [glyphosate], the “% Injury at 14 DAT Ave” value in the experiment on Hi II X 5XH751 (840 g ae/ha (1X field rate)) is on record as 98%; in the experiment on Hi II X 5XH751 (1680 g ae/ha (2X)) it was 100%; in the experiment with Hi II X 5XH751 (3360 g ae/ha (4X)) it was 100%; in experiment [4] (840 g ae/ha (1X field rate)), 0%; in experiment [4] (1680 g ae/ha (2X)), 0%; in [4] (3360 g ae/ha (4X)), 0%. Further, the “level of glyphosate tolerance (I50) vs. wildtype and transformed control lines” value in [6] is > 14 fold.
